Experimental data from patent US10183015B2, “Heterocyclic compounds and methods of use” (Medivation Technologies LLC, priority 2015, dated 2019).
Several values for one entry are separate records, joined by “and”; a condition that tells them apart may be missing. Equal values may be shown once.

Tests used:
[1] = 28-day repeat-dose toxicity study in healthy rats: plasma exposure (AUC24h); assay type: in vivo, rat; conditions: day 28
Description: In the repeat-dose toxicity study in rats (Compound #37P018), Compound #37 was given at 0 (vehicle control), 50, 100/75, and 200/150 mg/kg/day for 28 days; some animals from each dose group continued into a 28-day recovery period. After 28 days of treatment, liver neutral lipids from treated and control animals were analyzed with Oil Red O staining.
The more pronounced effects in female rats compared with male rats is consistent with the observed higher plasma exposure (>4-fold higher area under the curve over 24 hours [AUC24h]) at day 28 in females compared with males. Evidence of an effect of Compound #37 on leptin concentrations was also observed in female rats in a dose-dependent manner. As animals gain weight, leptin concentrations naturally increase due to its origin from adipose tissue. Female rats treated with Compound #37 had lower concentrations of leptin compared with the vehicle control group during the treatment period (day 4 and day 28), which was not observed after treatment termination and recovery (day 56) (FIG. 7).

NRF2 = assay: DIN mouse model: hepatic NRF2 gene expression; assay type: in vivo; conditions: liver, 20 mg/kg group
Description: (§1) Gene expression analysis. Hepatic expression levels of genes involved in lipid metabolism (FAS, SREBP1, ACC1, SCD1), cholesterol metabolism (HMG-CoAR, LDLR), SREBP proteolysis (SCAP, INSIG1), ER stress (PERK), oxidative stress (NRF2), inflammation (MCP-1), and fibrosis (collagen 1α1) were quantified by RTqPCR. Expression level was normalized to 18S gene expression and relative expression to vehicle group was calculated with the […] method.
(§2) Male C57Bl/6J mice (8 weeks old) were housed in enriched ventilated cages (31×12.5×12.7 cm) throughout the experimental phase. Animals' cages litters were changed at least once a week. Animal were housed 5 per cage on inverted 12-hour light cycle (at 09:00 am lights off), 22±2° C. and 55±10% relative humidity. The acclimation period was 20 days. During the acclimation period, all mice were fed a standard diet (RM1 (E) 801492, SDS) and tap water ad libitum. After the acclimation period, mice were fed with the DIN diet (60% fat, cholesterol enriched) and fructose-enriched tap water ad libitum until the end of the experiment.
(§3) At 6 weeks of diet, mice were 4-hour fasted (09:00 am to 1:00 pm) and blood (150 μl/EDTA) was collected at 01:00 pm by retro-orbital bleeding under isoflurane anesthesia. Mice were then allocated in 2 homogenous groups (n=12/group) according to their plasma levels of ALT (average levels: 685U/L), AST (average levels: 627U/L) and HOMA-IR index (average value: 4.7), into 2 homogenous groups (see values at day 0 in Tables 15A and 15B ALT/AST and Tables 16A and 16B for HOMA-IR). Mice were then treated once daily by oral gavage with vehicle (Group 1) or Compound #37 at 20 mg/kg (Group 2) for 70 days.
Hepatic expression levels of genes involved in lipid (FAS, SREBP1, ACC1, SCD1), cholesterol metabolism (HMG-CoAR, LDLR), in SREBP proteolysis (SCAP, INSIG1), in ER stress (PERK), oxidative stress (NRF2), and inflammation (MCP-1) were not changed. However, expression of collagen 1α1, involved in liver fibrosis, was reduced by 66% in mice treated with Compound #37 (p<0.05 vs. vehicle).

ACC1 = assay: Short-term Paigen-diet NASH mouse model: hepatic ACC1 gene expression (RT-qPCR); assay type: in vivo; conditions: liver, 21 days; for DDct: ACC1 Dct relative to vehicle mean; for Dct: ACC1 minus 18S; for 2DDct: ACC1 relative expression to vehicle group, normalized to 18S; for ACC1: raw RT-qPCR value
Description: To investigate whether Compound #37 prevents the development of pathology associated with NASH and steatosis in an acute exploratory disease model, a study was conducted using a diet-induced acute liver steatosis model in mice. As described below, in this study, C57BL/6J mice were initiated on the Paigen diet and simultaneously treated with Compound #37 (5, 20, and 40 mg/kg/day) or vehicle control (20% HPβCD 10 mL/kg/day) by oral gavage for 21 days.
After acclimation, 8-week old male C57Bl/6J mice (Charles River) weighing about 25 g were randomized in 4 groups according their body weight and treated once daily around noon by oral gavage with vehicle, or Compound #37 at various for 21 days as follows: Group 1: vehicle-20% (2-hydroxypropyl)-β-cyclodextrin (HP-β-CD) (n=10); Group 2: Compound #37, 5 mg/kg (n=10) Group 3: Compound #37, 20 mg/kg (n=10) Group 4: Compound #37, 40 mg/kg (n=10). During the treatment period, body weight and food intake (measured over 24h) were measured 3 times per week and once a week, respectively. During the acclimation, all mice were fed a standard diet (Special Diets Services RM1 (E), product no. 801492) and tap water ad libitum. After the acclimation period, mice were fed until the end of the experiment with a 60% high fat Paigen diet (60 kcal % fat, 1.25% cholesterol, and 0.5% cholate; D11061901, Research Diet) and tap water ad libitum.
as §1

[2] = system: diet-induced NASH obese insulin resistant mice; assay: DIN mouse model: liver weight and liver lipid levels; assay type: in vivo; design: liver weight: unit not given here; conditions: 20 mg/kg
Description: as §2, §3
To investigate whether Compound #37 improves pre-existing steatosis/NASH pathology, a study was conducted using a 16-week diet-induced NASH mouse model. In this model, mice develop steatosis that progresses with inflammation and fibrosis that mimic many of the observed pathologies in human nonalcoholic fatty liver disease (NAFLD) and NASH (Hebbard & George, 2010). For 6 weeks, mice were fed a high-fat, high-cholesterol diet and provided drinking water containing fructose to induce liver pathology (Charlton et al, 2011). After 6 weeks, the mice were divided into 2 groups with similar mean aspartate aminotransferase (AST) and alanine aminotransferase (ALT) values (n=12 mice), although it should be noted that AST and ALT concentrations within both groups were higher and with greater variability than anticipated (e.g., mean ALT 677 U/L [SD, 401 U/L] in the vehicle control group and 693 U/L [SD, 365 U/L] in the Compound #37 group). After the animals were divided into 2 groups, the diet was continued for 10 additional weeks during which time 1 group received vehicle and the other was treated with 20 mg/kg/day Compound #37.

[3] = individual animals, vs vehicle mean, 20 mg/kg
[4] = Compound #37 5 mg/kg, group mean, n=8
[5] = Compound #37 5 mg/kg, individual animals, 5 mg/kg
[6] = Compound #37 20 mg/kg, group mean, n=6
[7] = Compound #37 20 mg/kg, individual animals, 20 mg/kg

**Q.** With CC(C)Cc1cc(-c2nc(-c3ccc(NS(=O)(=O)C(F)(F)F)cc3Cl)cs2)ccn1 [Compound 37, N-(3-chloro-4-(2-(2-isobutylpyridin-4-yl)thiazol-4-yl)phenyl)-1,1,1-trifluoromethanesulfonamide] as the compound, how does the “plasma exposure (AUC24h) in females compared with males” value [1] read?
**A.** The value was > 4 fold.

**Q.** What about the “NRF2 Dct” value (NRF2; individual animals, normalised to 18S, 20 mg/kg) of the same compound?
**A.** The value was 10.62 and 10.7 and 12.57 and 11.27 and 11.31 and 10.88 and 11.1 and 10.74 and 12.23 and 11.89 and 9.9.

**Q.** And the “NRF2 2^DDct” value (NRF2; [3])?
**A.** Its value is 1.34 and 1.27 and 0.35 and 0.85 and 0.83 and 1.12 and 0.96 and 1.23 and 0.44 and 0.56 and 2.21.

**Q.** And the “NRF2 DDct” value (NRF2; [3])?
**A.** Its value is −0.42 and −0.34 and 1.53 and 0.23 and 0.27 and −0.16 and 0.06 and −0.3 and 1.19 and 0.85 and −1.14.

**Q.** What about the “NRF2 (Ct)” value (NRF2; individual animals, 20 mg/kg) of the same compound?
**A.** The value was 23.17 and 23.25 (2×) and 25.41 and 23.7 and 23.66 and 23.47 and 22.83 and 23.73 and 23.44 and 22.25.

**Q.** What about the “NRF2 2^DDct” value (NRF2; mean, n 11) of the same compound?
**A.** Its value is 1.01.

**Q.** What about the “NRF2 (Ct)” value (NRF2; mean, n 11) of the same compound?
**A.** Its value is 23.5.

**Q.** And the “NRF2 DDct” value (NRF2; mean, n 11)?
**A.** The value was 0.16.

**Q.** And the “NRF2 Dct” value (NRF2; mean, n 11)?
**A.** The value was 11.2.

**Q.** And the DDct (ACC1; [4])?
**A.** Its DDct is 0.81.

**Q.** What about the DDct (ACC1; [5]) of the same compound?
**A.** Its DDct is 1.08 and 0.78 and 1.88 and 3.12 and −0.53 and −0.87 and 1.01 and 0.01.

**Q.** And the DDct (ACC1; [6])?
**A.** Its DDct is 2.71.

**Q.** And the DDct (ACC1; [7])?
**A.** Its DDct is 0.6 and 7.15 and 3.66 and 0.46 and 3.91 and 0.45.

**Q.** And the Dct (ACC1; [4])?
**A.** The Dct was 18.7.

**Q.** And the Dct (ACC1; [5])?
**A.** The Dct was 19 and 18.7 and 19.8 and 21.04 and 17.39 and 17.05 and 18.93 and 17.93.

**Q.** And the Dct (ACC1; [6])?
**A.** Its Dct is 20.6.

**Q.** What about the Dct (ACC1; [7]) of the same compound?
**A.** Its Dct is 18.52 and 25.07 and 21.58 and 18.38 and 21.83 and 18.37.

**Q.** What about the 2DDct (ACC1; [4]) of the same compound?
**A.** The 2DDct was 0.78.

**Q.** What about the 2DDct (ACC1; [5]) of the same compound?
**A.** The 2DDct was 0.47 and 0.58 and 0.27 and 0.12 and 1.44 and 1.83 and 0.5 and 0.99.

**Q.** And the 2DDct (ACC1; [6])?
**A.** Its 2DDct is 0.38.

**Q.** What about the 2DDct (ACC1; [7]) of the same compound?
**A.** Its 2DDct is 0.66 and 0.01 and 0.08 and 0.73 (2×) and 0.07.

**Q.** What about the ACC1 (ACC1; [4]) of the same compound?
**A.** The ACC1 was 30.9.

**Q.** And the ACC1 (ACC1; [5])?
**A.** The ACC1 was 32.46 and 31.81 and 31.41 and 34.39 and 28.99 and 28.84 and 30.07 and 29.05.

**Q.** And the ACC1 (ACC1; [6])?
**A.** The ACC1 was 32.8.

**Q.** What about the ACC1 (ACC1; [7]) of the same compound?
**A.** Its ACC1 is 31.43 and 37.36 and 33.78 and 31.41 and 33.32 and 29.63.

**Q.** And the Liver weight increase ([2]; 70 days)?
**A.** The Liver weight increase was 21%.

**Q.** And the “Hepatic total cholesterol levels increase” value ([2]; 70 days, p<0.05 vs. vehicle)?
**A.** The value was 17%.

**Q.** What about the liver cholesterol ([2]; group mean, n 11) of the same compound?
**A.** Its liver cholesterol is 28.2 µg/mg.

**Q.** What about the liver fatty acids ([2]; group mean, n 11) of the same compound?
**A.** The liver fatty acids was 63.2 nmol/mg.

**Q.** And the liver triglycerides ([2]; group mean, n 11)?
**A.** Its liver triglycerides is 133.8 µg/mg.

**Q.** What about the liver weight ([2]; group mean, n 11) of the same compound?
**A.** Its liver weight is 2.56.

**Q.** And the liver cholesterol ([2]; individual animals)?
**A.** The liver cholesterol was 27.4 µg/mg and 32.2 µg/mg and 25.8 µg/mg and 28.4 µg/mg and 28.3 µg/mg and 27.1 µg/mg and 29.9 µg/mg and 20.7 µg/mg and 31.3 µg/mg and 34.0 µg/mg and 25.3 µg/mg.

**Q.** And the liver fatty acids ([2]; individual animals)?
**A.** Its liver fatty acids is 72.2 nmol/mg and 67.2 nmol/mg and 56.2 nmol/mg and 82.8 nmol/mg and 56.8 nmol/mg and 47.8 nmol/mg and 68.4 nmol/mg and 43.9 nmol/mg and 70.0 nmol/mg and 76.7 nmol/mg and 53.2 nmol/mg.

**Q.** And the liver triglycerides ([2]; individual animals)?
**A.** The liver triglycerides was 262.5 µg/mg and 203.3 µg/mg and 72.2 µg/mg and 162.3 µg/mg and 101.9 µg/mg and 53.6 µg/mg and 178.1 µg/mg and 48.9 µg/mg and 91.5 µg/mg and 195 µg/mg and 102.6 µg/mg.

**Q.** What about the liver weight ([2]; individual animals) of the same compound?
**A.** Its liver weight is 3.24 and 2.72 and 1.97 (2×) and 2.74 and 2.39 and 2.54 and 2.44 and 2.67 and 3.05 and 2.40.
